The source made the active and inactive calls.
Assays:
[1] = target: Guanine nucleotide-binding protein G(i) subunit alpha-2 (Homo sapiens, UniProt P04899)
[2] = target: T1, Thyroid hormone receptor-associated protein 3 (Homo sapiens, UniProt Q9Y2W1)
T1 sequence (Q9Y2W1 whole entry): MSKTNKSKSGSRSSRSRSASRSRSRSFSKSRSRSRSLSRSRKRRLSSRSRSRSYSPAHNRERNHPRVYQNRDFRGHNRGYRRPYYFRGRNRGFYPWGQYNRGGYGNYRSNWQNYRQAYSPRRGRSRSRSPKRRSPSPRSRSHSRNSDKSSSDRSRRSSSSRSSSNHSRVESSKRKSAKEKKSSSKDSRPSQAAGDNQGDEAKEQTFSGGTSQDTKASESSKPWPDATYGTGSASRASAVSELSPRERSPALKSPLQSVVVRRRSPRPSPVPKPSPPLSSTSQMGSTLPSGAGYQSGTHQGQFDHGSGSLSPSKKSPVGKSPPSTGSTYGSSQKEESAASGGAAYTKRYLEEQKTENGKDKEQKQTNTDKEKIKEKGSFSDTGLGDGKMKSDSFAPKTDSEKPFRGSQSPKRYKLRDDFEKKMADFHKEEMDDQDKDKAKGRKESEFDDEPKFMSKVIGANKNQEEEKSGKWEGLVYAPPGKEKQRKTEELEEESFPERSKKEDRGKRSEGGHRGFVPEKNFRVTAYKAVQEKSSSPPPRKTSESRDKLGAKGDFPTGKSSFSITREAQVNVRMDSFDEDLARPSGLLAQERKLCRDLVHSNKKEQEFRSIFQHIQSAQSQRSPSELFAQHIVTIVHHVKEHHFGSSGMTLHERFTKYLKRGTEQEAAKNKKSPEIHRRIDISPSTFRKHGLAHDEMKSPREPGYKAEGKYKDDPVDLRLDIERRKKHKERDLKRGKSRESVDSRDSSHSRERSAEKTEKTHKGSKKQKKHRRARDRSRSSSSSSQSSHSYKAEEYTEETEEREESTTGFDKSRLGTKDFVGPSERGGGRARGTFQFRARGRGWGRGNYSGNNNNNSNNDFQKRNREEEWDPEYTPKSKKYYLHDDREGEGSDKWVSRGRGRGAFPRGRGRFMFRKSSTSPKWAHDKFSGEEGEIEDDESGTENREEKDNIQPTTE

[3] = target: Serine/threonine-protein kinase MRCK gamma (Homo sapiens, UniProt Q6DT37)
Sequence of Serine/threonine-protein kinase MRCK gamma (Q6DT37 whole entry): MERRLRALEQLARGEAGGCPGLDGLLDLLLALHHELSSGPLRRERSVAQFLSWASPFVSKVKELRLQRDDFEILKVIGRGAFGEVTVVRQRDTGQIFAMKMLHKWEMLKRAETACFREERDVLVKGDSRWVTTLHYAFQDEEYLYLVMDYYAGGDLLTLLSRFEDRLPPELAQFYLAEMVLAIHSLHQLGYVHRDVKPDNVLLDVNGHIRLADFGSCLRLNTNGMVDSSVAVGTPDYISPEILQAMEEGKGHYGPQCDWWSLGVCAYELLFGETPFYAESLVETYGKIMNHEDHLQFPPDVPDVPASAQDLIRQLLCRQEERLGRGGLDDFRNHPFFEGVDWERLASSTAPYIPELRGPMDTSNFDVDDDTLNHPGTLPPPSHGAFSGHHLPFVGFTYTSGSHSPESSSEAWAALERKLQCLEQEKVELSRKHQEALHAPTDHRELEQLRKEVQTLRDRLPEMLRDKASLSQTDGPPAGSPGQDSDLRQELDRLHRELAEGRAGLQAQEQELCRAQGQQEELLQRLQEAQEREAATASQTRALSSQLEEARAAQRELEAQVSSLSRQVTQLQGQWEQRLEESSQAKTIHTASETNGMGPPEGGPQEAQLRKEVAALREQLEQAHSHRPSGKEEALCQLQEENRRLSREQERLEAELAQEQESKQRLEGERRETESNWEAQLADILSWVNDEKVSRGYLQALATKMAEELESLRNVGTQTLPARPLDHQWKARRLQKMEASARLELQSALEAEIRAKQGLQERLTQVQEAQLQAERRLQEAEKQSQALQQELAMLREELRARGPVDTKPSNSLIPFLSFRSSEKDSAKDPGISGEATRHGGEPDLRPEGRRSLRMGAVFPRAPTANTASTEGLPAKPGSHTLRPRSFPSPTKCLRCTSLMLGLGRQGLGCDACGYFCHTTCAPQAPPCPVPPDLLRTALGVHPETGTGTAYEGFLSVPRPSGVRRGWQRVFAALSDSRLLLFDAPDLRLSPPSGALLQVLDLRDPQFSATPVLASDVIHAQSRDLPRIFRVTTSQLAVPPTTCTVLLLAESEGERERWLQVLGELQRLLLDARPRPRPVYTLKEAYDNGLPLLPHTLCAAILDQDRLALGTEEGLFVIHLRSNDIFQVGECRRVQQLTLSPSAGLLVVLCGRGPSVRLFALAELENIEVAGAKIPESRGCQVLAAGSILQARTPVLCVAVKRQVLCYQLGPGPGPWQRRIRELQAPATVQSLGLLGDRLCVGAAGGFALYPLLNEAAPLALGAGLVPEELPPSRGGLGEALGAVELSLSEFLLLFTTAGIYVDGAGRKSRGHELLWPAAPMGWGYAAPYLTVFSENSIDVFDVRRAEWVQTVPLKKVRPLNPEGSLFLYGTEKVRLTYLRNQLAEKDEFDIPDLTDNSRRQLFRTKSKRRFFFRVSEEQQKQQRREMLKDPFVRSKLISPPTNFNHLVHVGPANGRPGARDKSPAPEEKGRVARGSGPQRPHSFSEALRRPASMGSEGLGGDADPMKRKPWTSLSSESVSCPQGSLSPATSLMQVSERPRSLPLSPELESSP

[4] = target: Hepatocyte growth factor receptor (Homo sapiens, UniProt P08581)
Sequence of Hepatocyte growth factor receptor (P08581 whole entry): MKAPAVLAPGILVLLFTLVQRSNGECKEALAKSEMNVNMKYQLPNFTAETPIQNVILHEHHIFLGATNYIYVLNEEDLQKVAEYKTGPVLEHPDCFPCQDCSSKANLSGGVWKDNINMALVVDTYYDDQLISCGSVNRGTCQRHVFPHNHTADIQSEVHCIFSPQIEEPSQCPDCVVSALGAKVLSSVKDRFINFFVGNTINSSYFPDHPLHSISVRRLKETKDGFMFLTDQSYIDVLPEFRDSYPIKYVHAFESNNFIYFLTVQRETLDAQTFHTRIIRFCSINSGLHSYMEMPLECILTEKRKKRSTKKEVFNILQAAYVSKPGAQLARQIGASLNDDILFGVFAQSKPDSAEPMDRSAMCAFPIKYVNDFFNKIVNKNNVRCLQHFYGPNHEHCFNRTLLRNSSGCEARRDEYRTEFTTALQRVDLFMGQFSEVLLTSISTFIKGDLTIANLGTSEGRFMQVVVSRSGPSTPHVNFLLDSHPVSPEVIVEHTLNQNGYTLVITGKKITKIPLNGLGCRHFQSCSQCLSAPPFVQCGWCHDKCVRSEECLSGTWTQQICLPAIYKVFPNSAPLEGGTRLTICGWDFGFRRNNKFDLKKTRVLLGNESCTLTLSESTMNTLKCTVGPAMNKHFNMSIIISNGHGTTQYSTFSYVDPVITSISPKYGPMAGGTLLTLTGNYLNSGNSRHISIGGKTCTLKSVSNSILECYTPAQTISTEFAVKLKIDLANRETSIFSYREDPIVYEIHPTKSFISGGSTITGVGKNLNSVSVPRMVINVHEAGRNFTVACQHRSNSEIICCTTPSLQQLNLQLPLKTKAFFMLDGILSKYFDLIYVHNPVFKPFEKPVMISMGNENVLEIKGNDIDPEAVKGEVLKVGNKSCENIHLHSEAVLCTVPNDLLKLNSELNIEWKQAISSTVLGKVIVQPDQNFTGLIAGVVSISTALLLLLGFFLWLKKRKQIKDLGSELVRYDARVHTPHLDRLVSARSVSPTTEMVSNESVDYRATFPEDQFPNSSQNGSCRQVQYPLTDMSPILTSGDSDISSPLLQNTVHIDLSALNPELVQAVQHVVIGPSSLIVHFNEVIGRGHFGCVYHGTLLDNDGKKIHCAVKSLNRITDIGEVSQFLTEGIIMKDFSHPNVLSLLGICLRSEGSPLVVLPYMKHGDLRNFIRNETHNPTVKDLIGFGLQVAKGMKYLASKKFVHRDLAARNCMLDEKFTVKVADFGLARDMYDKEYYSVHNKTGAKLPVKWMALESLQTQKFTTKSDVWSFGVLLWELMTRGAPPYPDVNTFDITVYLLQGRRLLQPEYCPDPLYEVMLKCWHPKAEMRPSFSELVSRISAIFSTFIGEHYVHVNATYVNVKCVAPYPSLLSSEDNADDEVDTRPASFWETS

[5] = target: T2, Cyclin-dependent kinase-like 5 (Homo sapiens, UniProt O76039)
T2 sequence (O76039 whole entry): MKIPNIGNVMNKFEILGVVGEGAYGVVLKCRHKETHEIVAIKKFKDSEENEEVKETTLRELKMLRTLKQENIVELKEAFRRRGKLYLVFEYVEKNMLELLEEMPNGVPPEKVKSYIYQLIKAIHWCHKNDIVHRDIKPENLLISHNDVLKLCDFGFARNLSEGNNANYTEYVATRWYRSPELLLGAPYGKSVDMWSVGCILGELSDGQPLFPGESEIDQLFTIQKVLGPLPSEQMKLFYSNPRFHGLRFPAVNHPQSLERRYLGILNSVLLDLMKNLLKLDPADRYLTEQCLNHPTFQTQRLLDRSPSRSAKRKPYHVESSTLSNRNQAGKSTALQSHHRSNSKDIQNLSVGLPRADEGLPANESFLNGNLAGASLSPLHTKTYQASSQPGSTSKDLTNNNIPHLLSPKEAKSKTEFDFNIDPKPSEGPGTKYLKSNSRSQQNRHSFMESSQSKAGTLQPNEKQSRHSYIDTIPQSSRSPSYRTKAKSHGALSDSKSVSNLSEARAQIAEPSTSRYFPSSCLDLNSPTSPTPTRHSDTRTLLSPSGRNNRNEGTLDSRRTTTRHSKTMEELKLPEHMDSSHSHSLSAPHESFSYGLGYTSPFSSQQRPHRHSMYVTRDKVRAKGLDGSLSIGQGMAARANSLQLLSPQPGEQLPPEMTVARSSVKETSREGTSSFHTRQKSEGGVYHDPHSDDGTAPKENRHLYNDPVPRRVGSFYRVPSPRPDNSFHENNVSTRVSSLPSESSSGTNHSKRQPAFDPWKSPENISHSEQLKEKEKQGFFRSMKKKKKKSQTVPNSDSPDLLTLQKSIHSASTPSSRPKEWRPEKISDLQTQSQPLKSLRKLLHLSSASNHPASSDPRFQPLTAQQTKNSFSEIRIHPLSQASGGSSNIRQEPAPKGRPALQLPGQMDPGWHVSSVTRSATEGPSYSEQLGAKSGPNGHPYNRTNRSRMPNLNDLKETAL

[6] = target: T3, Inhibitor of nuclear factor kappa-B kinase subunit epsilon (Homo sapiens, UniProt Q14164)
T3 sequence (Q14164 whole entry): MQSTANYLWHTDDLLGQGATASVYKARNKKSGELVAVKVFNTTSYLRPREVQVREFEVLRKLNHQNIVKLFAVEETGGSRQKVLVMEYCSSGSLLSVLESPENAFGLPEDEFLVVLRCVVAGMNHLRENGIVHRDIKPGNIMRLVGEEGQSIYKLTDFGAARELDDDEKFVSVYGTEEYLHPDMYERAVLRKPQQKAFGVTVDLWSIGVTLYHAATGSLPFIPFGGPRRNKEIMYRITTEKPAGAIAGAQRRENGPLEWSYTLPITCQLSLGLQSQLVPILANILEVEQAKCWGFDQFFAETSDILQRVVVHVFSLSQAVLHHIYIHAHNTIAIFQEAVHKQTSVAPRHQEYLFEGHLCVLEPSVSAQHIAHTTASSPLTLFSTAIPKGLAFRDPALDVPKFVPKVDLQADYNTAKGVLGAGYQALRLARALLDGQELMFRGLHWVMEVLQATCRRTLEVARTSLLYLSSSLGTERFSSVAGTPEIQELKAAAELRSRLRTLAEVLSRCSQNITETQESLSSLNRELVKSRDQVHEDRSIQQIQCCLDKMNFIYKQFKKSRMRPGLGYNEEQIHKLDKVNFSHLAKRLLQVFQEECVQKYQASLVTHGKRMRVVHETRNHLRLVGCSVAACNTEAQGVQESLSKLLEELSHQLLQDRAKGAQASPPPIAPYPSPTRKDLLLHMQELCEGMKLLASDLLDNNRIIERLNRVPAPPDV
Further: in the data inactive means no Kd found up to 30 µM.

Sequence of Guanine nucleotide-binding protein G(i) subunit alpha-2 (P04899 whole entry): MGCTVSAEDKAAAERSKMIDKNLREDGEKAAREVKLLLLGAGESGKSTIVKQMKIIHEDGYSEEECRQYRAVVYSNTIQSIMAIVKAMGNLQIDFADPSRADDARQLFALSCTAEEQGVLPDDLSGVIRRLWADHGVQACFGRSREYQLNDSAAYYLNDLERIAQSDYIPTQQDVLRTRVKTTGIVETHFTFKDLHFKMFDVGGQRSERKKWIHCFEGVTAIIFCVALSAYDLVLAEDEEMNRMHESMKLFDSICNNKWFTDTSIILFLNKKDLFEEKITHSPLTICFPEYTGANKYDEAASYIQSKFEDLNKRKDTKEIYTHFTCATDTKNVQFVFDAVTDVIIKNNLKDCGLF

Structure (SMILES) | Kd [1] | Kd [2] | Kd [3] | Kd [4] | Kd [5] | Kd [6]
Cc1ccc(NC(=O)c2ccc(CN3CC[C@H](N(C)C)C3)c(C(F)(F)F)c2)cc1Nc1nccc(-c2cncnc2)n1 [BAFETINIB] | > 30 µM (inactive) | > 30 µM (inactive) | > 30 µM (inactive) | > 30 µM (inactive) | > 30 µM (inactive) | > 30 µM (inactive)
O=C1NC(=O)/C(=C/c2ccc3nccc(-c4ccncc4)c3c2)S1 [GSK-1059615] | > 30 µM (inactive) | > 30 µM (inactive) | > 30 µM (inactive) | > 30 µM (inactive) | > 30 µM (inactive) | > 30 µM (inactive)
Cc1cc2c(F)c(Oc3ncnn4cc(OC[C@@H](C)OC(=O)[C@H](C)N)c(C)c34)ccc2[nH]1 [BRIVANIB ALANINATE] | > 30 µM (inactive) | > 30 µM (inactive) | > 30 µM (inactive) | > 30 µM (inactive) | > 30 µM (inactive) | > 30 µM (inactive)

Now from value to compound:

Kd [1] | Kd [2] | Kd [3] | Kd [4] | Kd [5] | Kd [6] | Structure (SMILES)
> 30 µM (inactive) | > 30 µM (inactive) | > 30 µM (inactive) | > 30 µM (inactive) | > 30 µM (inactive) | > 30 µM (inactive) | Cn1cc(-c2ccc(F)c(C(F)(F)F)c2)nc1C1CCN(c2ncnc3[nH]ncc23)CC1 [LY-2584702]
> 30 µM (inactive) | > 30 µM (inactive) | > 30 µM (inactive) | > 30 µM (inactive) | > 30 µM (inactive) | 0.342 µM (active) | O=C(Nc1ccc(-c2ccnc(Nc3ccc(N4CCOCC4)cc3)n2)cc1)C1CCCN1 (configuration not stated) [XL-019]
> 30 µM (inactive) | > 30 µM (inactive) | > 30 µM (inactive) | 0.94 µM (active) | > 30 µM (inactive) | > 30 µM (inactive) | COc1cc(OC)c(/C=C/S(=O)(=O)Cc2ccc(OC)c(NCC(=O)O)c2)c(OC)c1 [RIGOSERTIB]
> 30 µM (inactive) | > 30 µM (inactive) | > 30 µM (inactive) | > 30 µM (inactive) | > 30 µM (inactive) | > 30 µM (inactive) | CN1CCC(CNc2ccc3ncc(-c4cccc(OC(F)(F)F)c4)n3n2)CC1 [SGI-1776]
